10 compounds from DBAASP can be followed below.

Common to all, as to test: ≥ marks a high value that may be exact or a test limit, other limits are often not marked, values filed in µg/mL are converted to µM
Assay [1] deals with Candida albicans ATCC 36232.
In assay [2] the test system is Staphylococcus aureus ATCC 6538.
Assay [3] has as its system Pseudomonas aeruginosa ATCC 9027.
Assay [4] concerns Micrococcus luteus ATCC 9341.
Assay [5] has as its system Escherichia coli ATCC 2592.
Assay [6] has as its system Staphylococcus aureus NCTC 10788.
Assay [7] deals with Pseudomonas aeruginosa ATCC 27853.
Assay [8] concerns Escherichia coli NCTC 10418.
Assay [9] has as its system Staphylococcus aureus NCTC 12493.
The test system of assay [10] is Candida albicans NCYC 1467.
The subject of assay [11] is Enterococcus faecalis NCTC 12697.
Assay [12] concerns Klebsiella pneumoniae ATCC 10031.
Assay [13] concerns Escherichia coli DH5alpha.
Assay [14] relates to Salmonella enterica subsp. enterica serovar Typhimurium ATCC 14028.
The test system of assay [15] is Escherichia coli ATCC 10536.
Assay [16] has as its system Staphylococcus aureus ATCC 9144.
Assay [17] deals with Candida albicans ATCC 20032.
The test system of assay [18] is Staphylococcus aureus ATCC 25923.
The test system of assay [19] is Bacillus subtilis ATCC 6633.
The subject of assay [20] is Escherichia coli ATCC 25922.
Assay [21] deals with Streptococcus mutans ATCC 25175.
Assay [22] concerns Staphylococcus aureus ATCC 12600.
Assay [23] has as its system Staphylococcus aureus ATCC 12493.
The subject of assay [24] is Staphylococcus epidermidis ATCC 12228.
Another assay concerns Staphylococcus aureus.

Molecules are shown by their SMILES. ≈ marks a conversion by molar mass, not a printed value. Where “and” joins values, the source holds several entries; their conditions need not be identical. Equal values may be shown once. Where only a bound is given, the exact number is not on record here.

As usually defined, the MIC is the lowest concentration that inhibits growth of the organism. A low value points to inhibition by little substance.

For `CC(C)C[C@H](NC(=O)[C@H](CS)NC(=O)[C@H](CCCCN)NC(=O)[C@H](C)NC(=O)[C@H](C)NC(=O)[C@H](CS)NC(=O)[C@H](C)NC(=O)[C@H](C)NC(=O)[C@@H](N)CC(=O)O)C(=O)N[C@@H](Cc1c[nH]c2ccccc12)C(=O)N[C@@H](CCCN=C(N)N)C(N)=O` [DAACAAKCLWR], the minimum inhibitory concentration (MIC) in [1] was at least 166 µM; in assay [2], 166 µM (≈ 200 µg/mL); in [3], over 166 µM; in assay [4], at least 166 µM; in assay [5] it was at least 166 µM.

Consider `CC[C@H](C)[C@H](NC(=O)CNC(=O)[C@H](CCC(N)=O)NC(=O)[C@@H](NC(=O)[C@H](C)NC(=O)[C@H](Cc1cnc[nH]1)NC(=O)[C@@H]1CCCN1C(=O)[C@@H](NC(=O)[C@H](CC(C)C)NC(=O)[C@@H]1CCCN1C(=O)[C@@H](NC(=O)[C@H](CC(C)C)NC(=O)[C@H](Cc1cnc[nH]1)NC(=O)[C@H](CCC(N)=O)NC(=O)[C@@H](NC(=O)[C@@H](N)Cc1ccccc1)[C@@H](C)CC)[C@@H](C)CC)[C@@H](C)CC)[C@@H](C)CC)C(=O)N[C@@H](CCCCN)C(=O)N[C@@H](CC(=O)O)C(=O)N[C@H](C(=O)N[C@@H](Cc1ccccc1)C(N)=O)[C@@H](C)CC` [FIQHLIPLIPHAIQGIKDIF], for which the minimum inhibitory concentration (MIC) was 22.6 µM (≈ 52.3 µg/mL) in assay [6]; over 512 µM in assay [7]; at least 512 µM in [8]; at least 45.3 µM in assay [9]; at least 90.5 µM in [10]; at least 128 µM in [11].

With `CC(C)C[C@H](NC(=O)[C@H](Cc1ccccc1)NC(=O)[C@H](CCCCN)NC(=O)[C@H](C)NC(=O)[C@H](C)NC(=O)[C@H](CC(C)C)NC(=O)[C@H](CCCCN)NC(=O)[C@H](CCCCN)NC(=O)[C@H](CC(C)C)NC(=O)[C@H](CC(C)C)NC(=O)[C@H](CCCCN)NC(=O)[C@H](CC(C)C)NC(=O)[C@@H](N)Cc1ccccc1)C(=O)O` [FLKLLKKLAAKFL], the values for the MIC in assay [12], in assay [13] and in assay [14] were 16.3 µM (≈ 25 µg/mL), 2.04 µM (≈ 3.13 µg/mL) and 16.3 µM (≈ 25 µg/mL), respectively.

With `CC[C@H](C)[C@H](NC(=O)[C@@H]1CCCN1C(=O)[C@@H]1CCCN1C(=O)[C@H](CO)NC(=O)[C@@H](NC(=O)[C@H](CCCCN)NC(=O)[C@H](CCCCN)NC(=O)[C@H](Cc1ccccc1)NC(=O)[C@H](CC(C)C)NC(=O)[C@H](CCCCN)NC(=O)[C@H](CCCCN)NC(=O)CNC(=O)[C@H](CCCCN)NC(=O)[C@H](CCCCN)NC(=O)[C@H](CCCN=C(N)N)NC(=O)[C@H](Cc1ccccc1)NC(=O)[C@H](CCCN=C(N)N)NC(=O)[C@H](CCCCN)NC(=O)[C@H](Cc1ccccc1)NC(=O)[C@H](CCCN=C(N)N)NC(=O)[C@@H](N)Cc1ccccc1)C(C)C)C(=O)N[C@@H](CC(C)C)C(=O)N[C@@H](CC(C)C)C(=O)N[C@@H](CC(C)C)C(=O)N[C@@H](Cc1cnc[nH]1)C(=O)N[C@@H](CC(C)C)C(N)=O` [FRFKRFRKKGKKLFKKVSPPILLLHL], the MIC is 3.3 µM and 8.1 µM in assay [15]; 3.2 µM (≈ 10.3 µg/mL) in assay [16]; 3.1 µM (≈ 10 µg/mL) in [13].

As for `CC[C@H](C)[C@H](NC(=O)CN)C(=O)NCC(=O)NCC(=O)N[C@@H](C)C(=O)N[C@@H](CC(C)C)C(=O)N[C@@H](CC(C)C)C(=O)N[C@@H](CO)C(=O)N[C@@H](C)C(=O)NCC(=O)N[C@@H](CCCCN)C(=O)N[C@@H](CO)C(=O)N[C@@H](C)C(=O)N[C@@H](CC(C)C)C(=O)N[C@@H](CCCCN)C(=O)NCC(=O)N[C@@H](CC(C)C)C(=O)N[C@@H](C)C(=O)N[C@@H](CCCCN)C(=O)NCC(=O)N[C@@H](CC(C)C)C(=O)N[C@@H](C)C(=O)N[C@@H](CCC(=O)O)C(=O)N[C@@H](Cc1cnc[nH]1)C(=O)N[C@@H](Cc1ccccc1)C(N)=O` [GIGGALLSAGKSALKGLAKGLAEHF], the MIC in assay [17] is at least 42.3 µM; in assay [18], 15.8 µM (≈ 37.5 µg/mL); in assay [19], at least 42.3 µM; in [20] it was 31.7 µM (≈ 75 µg/mL).

In the case of `CC[C@H](C)[C@H](NC(=O)[C@H](C)NC(=O)CNC(=O)[C@H](Cc1ccccc1)NC(=O)[C@H](CC(C)C)NC(=O)CN)C(=O)N[C@@H](C)C(=O)NCC(=O)N[C@@H](Cc1ccccc1)C(=O)N[C@H](C(=O)N[C@@H](CCC(=O)O)C(=O)N[C@@H](CC(N)=O)C(=O)NCC(=O)N[C@@H](Cc1c[nH]c2ccccc12)C(=O)N[C@@H](CCC(=O)O)C(=O)NCC(=O)N[C@@H](CCSC)C(=O)N[C@H](C(=O)N[C@@H](CC(=O)O)C(=O)NCC(N)=O)[C@@H](C)CC)[C@@H](C)CC` [GLFGAIAGFIENGWEGMIDG], the minimal inhibitory concentration (MIC) is at least 60.9 µM in assay [21], over 60.9 µM in [7], at least 60.9 µM in assay [22] and over 60.9 µM in [20].

Consider `CC[C@H](C)[C@H](N)C(=O)N[C@@H](CC(C)C)C(=O)NCC(=O)N1CCC[C@H]1C(=O)N[C@H](C(=O)N[C@@H](CC(C)C)C(=O)NCC(=O)N[C@@H](CC(C)C)C(=O)N[C@H](C(=O)NCC(=O)N[C@@H](CC(=O)O)C(=O)N[C@H](C(=O)N[C@@H](CC(C)C)C(=O)NCC(=O)N[C@@H](CC(=O)O)C(=O)N[C@@H](CC(C)C)C(=O)N[C@@H](CC(C)C)C(N)=O)[C@@H](C)O)C(C)C)C(C)C` [ILGPVLGLVGDTLGDLL], for which the MIC in [17] is at least 60.1 µM; in assay [18] it was over 60.1 µM; in [19] it was at least 60.1 µM; in [20], over 60.1 µM.

On to `CC[C@H](C)[C@@H]1NC(=O)[C@H](CO)NC(=O)[C@H](CCCCN)NC(=O)[C@H]([C@@H](C)O)NC(=O)[C@H](Cc2c[nH]c3ccccc23)NC(=O)[C@@H](NC(=O)[C@H](CCCN=C(N)N)NC(=O)[C@H](CCCN=C(N)N)NC(=O)[C@H](CCCN=C(N)N)NC(=O)[C@H](CCC(N)=O)NC(=O)[C@H](CCCN=C(N)N)NC(=O)[C@H](CCCN=C(N)N)NC(=O)[C@H](CCCCN)NC(=O)[C@H](CCCCN)NC(=O)[C@@H](N)CCCN=C(N)N)CSSC[C@@H](C(=O)O)NC(=O)[C@@H]2CCCN2C(=O)[C@H](CCCCN)NC(=O)[C@@H]2CCCN2C(=O)[C@@H]2CCCN2C1=O` [RKKRRQRRRCWTKSIPPKPC], for which the minimal inhibitory concentration (MIC) in [6] was at least 128 µM; in assay [7], 256 µM (≈ 660 µg/mL); in [8], at least 128 µM; in [10], 4 µM (≈ 10.3 µg/mL); in [23], at least 256 µM.

`CC(C)[C@H](NC(=O)[C@H](CS)NC(=O)[C@@H](NC(=O)[C@H](CCCN=C(N)N)NC(=O)[C@H](CCCCN)NC(=O)CNC(=O)[C@H](CC(N)=O)NC(=O)[C@H](CS)NC(=O)[C@H](Cc1ccc(O)cc1)NC(=O)CNC(=O)CNC(=O)[C@H](CO)NC(=O)[C@@H](N)CCCN=C(N)N)C(C)C)C(=O)N[C@@H](CS)C(=O)N[C@@H](CCCN=C(N)N)C(=O)O` [RSGGYCNGKRVCVCR]: the minimum inhibitory concentration (MIC) in [1] was 15.1 µM (≈ 25 µg/mL); in [24], 7.54 µM (≈ 12.5 µg/mL); in assay [2], 15.1 µM (≈ 25 µg/mL); in [3] it was 30.2 µM (≈ 50 µg/mL); against Staphylococcus aureus it was over 60.3 µM; in assay [4], 15.1 µM (≈ 25 µg/mL). Besides, the MIC came to 30.2 µM (≈ 50 µg/mL) in [5] and 7.54 µM (≈ 12.5 µg/mL) in assay [19].

For the compound `CC(C)C[C@H](NC(=O)[C@H](C)NC(=O)[C@@H](N)CO)C(=O)N[C@H](C(=O)NCC(=O)N[C@H]1CSSC[C@@H](C(=O)N[C@@H](Cc2ccccc2)C(=O)NCC(=O)N[C@@H](CCCN=C(N)N)C(=O)NCC(=O)O)NC(=O)[C@@H]2CCCN2C(=O)[C@H](CC(N)=O)NC(=O)[C@@H]2CCCN2C(=O)[C@@H]2CCCN2C(=O)[C@H](Cc2ccc(O)cc2)NC(=O)[C@H](CO)NC(=O)[C@H](CCCCN)NC(=O)[C@H]([C@@H](C)O)NC(=O)[C@H](Cc2c[nH]c3ccccc23)NC1=O)C(C)C` [SALVGCWTKSYPPNPCFGRG], the minimum inhibitory concentration (MIC) in assay [17] was at least 46.7 µM; in assay [18], 11.7 µM (≈ 25 µg/mL).
